According to article PMC4992025, “A Colorimetric Microplate Assay for DNA-Binding Activity of His-Tagged MutS Protein” (Molecular Biotechnology, 2016):

Target: T1, TthMutS (Thermus thermophilus, UniProt Q56239)
T1 construct: gene mutS; N-terminal His-tag translational fusion, tag kept; expressed in E. coli BL21(DE3)pLysS; IMAC purified; immobilized on nickel plate; 92 kDa monomer (stated for MutS generally)
T1 sequence (Q56239 2-819): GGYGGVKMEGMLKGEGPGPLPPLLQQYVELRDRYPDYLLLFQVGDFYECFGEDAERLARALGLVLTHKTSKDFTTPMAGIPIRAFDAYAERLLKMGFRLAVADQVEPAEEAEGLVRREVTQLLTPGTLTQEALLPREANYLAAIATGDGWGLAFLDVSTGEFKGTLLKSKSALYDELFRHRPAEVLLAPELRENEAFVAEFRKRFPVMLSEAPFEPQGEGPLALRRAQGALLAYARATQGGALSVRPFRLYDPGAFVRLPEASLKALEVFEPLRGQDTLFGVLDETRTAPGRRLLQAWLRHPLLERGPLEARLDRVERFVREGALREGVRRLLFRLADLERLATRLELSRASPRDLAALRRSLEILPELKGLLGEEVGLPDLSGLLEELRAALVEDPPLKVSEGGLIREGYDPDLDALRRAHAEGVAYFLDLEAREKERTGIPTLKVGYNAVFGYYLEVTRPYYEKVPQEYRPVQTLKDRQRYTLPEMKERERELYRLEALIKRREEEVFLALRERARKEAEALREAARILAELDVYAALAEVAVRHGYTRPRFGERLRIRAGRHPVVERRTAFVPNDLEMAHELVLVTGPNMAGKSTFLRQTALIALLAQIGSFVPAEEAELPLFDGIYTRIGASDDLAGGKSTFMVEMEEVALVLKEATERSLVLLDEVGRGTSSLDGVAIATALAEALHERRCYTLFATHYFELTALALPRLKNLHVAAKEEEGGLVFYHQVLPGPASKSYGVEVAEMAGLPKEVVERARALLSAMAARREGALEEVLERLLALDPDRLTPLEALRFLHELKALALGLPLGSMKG
Assay: colorimetric nickel-plate DNA mismatch binding assay (A620)
Assay type: biochemical
Conditions: 1 mM ADP; 300 mM salt (PBSx2); room temperature; immobilized his-tagged protein; modulator of TG49 mismatch versus TA49 DNA binding

Nc1ncnc2c1ncn2[C@@H]1O[C@H](COP(=O)(O)OP(=O)(O)O)[C@@H](O)[C@H]1O [ADP]
colorimetric nickel-plate DNA mismatch binding assay (A620): In the presence of ADP, the specificity of MutS from T. thermophilus strongly increased
